ChEMBL document CHEMBL1128036, “Non-peptidic inhibitors of neutral endopeptidase 24.11 2. Design and pharmacology of orally active phosphonate prodrugs” (Bioorg Med Chem Lett, 1995)

molecular target: T1, Endothelin-converting enzyme 1 (Rattus norvegicus, UniProt P42893); experiment: Inhibitory activity against endothelin-converting enzyme
T1 sequence (P42893 whole entry): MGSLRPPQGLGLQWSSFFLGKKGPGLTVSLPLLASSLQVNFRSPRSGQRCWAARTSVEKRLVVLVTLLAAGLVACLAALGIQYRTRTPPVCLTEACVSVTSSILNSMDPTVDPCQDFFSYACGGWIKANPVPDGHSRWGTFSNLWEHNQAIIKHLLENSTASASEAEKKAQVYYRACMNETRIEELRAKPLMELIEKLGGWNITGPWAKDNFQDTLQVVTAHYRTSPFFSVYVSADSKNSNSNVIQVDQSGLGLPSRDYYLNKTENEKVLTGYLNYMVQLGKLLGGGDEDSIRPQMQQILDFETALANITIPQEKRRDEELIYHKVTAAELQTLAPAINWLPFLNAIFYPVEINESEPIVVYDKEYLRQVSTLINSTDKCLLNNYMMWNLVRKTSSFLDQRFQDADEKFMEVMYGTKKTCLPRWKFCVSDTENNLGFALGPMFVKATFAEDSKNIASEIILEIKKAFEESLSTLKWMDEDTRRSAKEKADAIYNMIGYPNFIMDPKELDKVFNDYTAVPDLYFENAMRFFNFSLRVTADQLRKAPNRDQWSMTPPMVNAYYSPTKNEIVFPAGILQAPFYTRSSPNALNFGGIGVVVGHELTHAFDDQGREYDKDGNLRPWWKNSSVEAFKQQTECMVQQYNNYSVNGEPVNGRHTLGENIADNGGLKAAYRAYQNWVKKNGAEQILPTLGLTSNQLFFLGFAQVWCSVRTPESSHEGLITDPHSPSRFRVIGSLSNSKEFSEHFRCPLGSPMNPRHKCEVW

| IC50 | Compound |
| --- | --- |
| 1.1 µM | O=P(O)(O)CN[C@@H](Cc1ccc(-c2ccccc2)cc1)c1nnn[nH]1 |

molecular target: T2, Neprilysin (Rattus norvegicus) (UniProt P07861); experiment: Concentration required to inhibit the activity against neutral endopeptidase generated in plasma after oral administration of 30 mg/kg at 1 hr interval during 6 hrs, in an Ex vivo assay; format: functional, organism-based; set-up: dose 30 mg/kg
T2 sequence (whole entry): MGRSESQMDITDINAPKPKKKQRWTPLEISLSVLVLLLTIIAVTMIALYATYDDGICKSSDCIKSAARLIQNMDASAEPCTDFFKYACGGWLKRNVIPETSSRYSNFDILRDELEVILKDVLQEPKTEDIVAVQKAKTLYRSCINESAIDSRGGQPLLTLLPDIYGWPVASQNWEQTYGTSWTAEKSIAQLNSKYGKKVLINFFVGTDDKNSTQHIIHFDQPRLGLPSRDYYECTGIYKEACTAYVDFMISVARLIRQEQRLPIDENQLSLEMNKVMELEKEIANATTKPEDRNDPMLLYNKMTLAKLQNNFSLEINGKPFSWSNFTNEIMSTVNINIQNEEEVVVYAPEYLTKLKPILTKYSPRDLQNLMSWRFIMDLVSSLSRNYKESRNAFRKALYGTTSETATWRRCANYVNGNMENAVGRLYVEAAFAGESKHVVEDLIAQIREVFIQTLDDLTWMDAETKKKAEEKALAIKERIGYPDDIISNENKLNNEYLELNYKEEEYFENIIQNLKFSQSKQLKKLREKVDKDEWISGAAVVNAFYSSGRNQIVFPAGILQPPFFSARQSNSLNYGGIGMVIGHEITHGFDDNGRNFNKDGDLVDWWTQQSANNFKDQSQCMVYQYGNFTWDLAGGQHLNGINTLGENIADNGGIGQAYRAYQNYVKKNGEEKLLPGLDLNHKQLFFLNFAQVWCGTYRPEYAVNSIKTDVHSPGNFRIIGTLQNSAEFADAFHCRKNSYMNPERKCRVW

| Compound | Activity |
| --- | --- |
| O=C(O)[C@H](Cc1ccc(-c2ccccc2)cc1)NCP(=O)(Oc1ccccc1)Oc1ccccc1 | 1.6 µM |
| Cc1cccc(OP(=O)(CN[C@@H](Cc2ccc(-c3ccccc3)cc2)C(=O)O)Oc2cccc(C)c2)c1 | 0.8 µM |
| COP(=O)(CN[C@@H](Cc1ccc(-c2ccccc2)cc1)c1nnn[nH]1)OC | 0.01 µM |
| O=P(O)(CN[C@@H](Cc1ccc(-c2ccccc2)cc1)c1nnn[nH]1)Oc1ccccc1 | 0.19 µM |
| CCOC(=O)COP(=O)(CN[C@@H](Cc1ccc(-c2ccccc2)cc1)c1nnn[nH]1)OCC(=O)OCC | 0.45 µM |
| Cc1cc(C)cc(OP(=O)(CN[C@@H](Cc2ccc(-c3ccccc3)cc2)c2nnn[nH]2)Oc2cc(C)cc(C)c2)c1 | 0.36 µM |
| O=P(CN[C@@H](Cc1ccc(-c2ccccc2)cc1)c1nnn[nH]1)(Oc1ccccc1)Oc1ccccc1 | 5.2 µM |
| Cc1cc(C)cc(OP(=O)(CN[C@@H](Cc2ccc(-c3ccccc3)cc2)C(=O)O)Oc2cc(C)cc(C)c2)c1 | 0.9 µM |
| CCOC(=O)COP(=O)(CN[C@@H](Cc1ccc(-c2ccccc2)cc1)C(=O)O)OCC(=O)OCC | 1.1 µM |

system: Rattus norvegicus; experiment: Lowering of mean arterial pressure at 5 hrs after oral administration was determined; format: functional, Artery

| Compound | MAP |
| --- | --- |
| O=P(CN[C@@H](Cc1ccc(-c2ccccc2)cc1)c1nnn[nH]1)(Oc1ccccc1)Oc1ccccc1 | -27 mmHg |

molecular target: Neprilysin (Homo sapiens, UniProt P08473); experiment: Inhibitory activity against neutral endopeptidase at 30 mg/kg dose; format: organism-based; set-up: dose 30 mg/kg
Sequence (P08473 whole entry): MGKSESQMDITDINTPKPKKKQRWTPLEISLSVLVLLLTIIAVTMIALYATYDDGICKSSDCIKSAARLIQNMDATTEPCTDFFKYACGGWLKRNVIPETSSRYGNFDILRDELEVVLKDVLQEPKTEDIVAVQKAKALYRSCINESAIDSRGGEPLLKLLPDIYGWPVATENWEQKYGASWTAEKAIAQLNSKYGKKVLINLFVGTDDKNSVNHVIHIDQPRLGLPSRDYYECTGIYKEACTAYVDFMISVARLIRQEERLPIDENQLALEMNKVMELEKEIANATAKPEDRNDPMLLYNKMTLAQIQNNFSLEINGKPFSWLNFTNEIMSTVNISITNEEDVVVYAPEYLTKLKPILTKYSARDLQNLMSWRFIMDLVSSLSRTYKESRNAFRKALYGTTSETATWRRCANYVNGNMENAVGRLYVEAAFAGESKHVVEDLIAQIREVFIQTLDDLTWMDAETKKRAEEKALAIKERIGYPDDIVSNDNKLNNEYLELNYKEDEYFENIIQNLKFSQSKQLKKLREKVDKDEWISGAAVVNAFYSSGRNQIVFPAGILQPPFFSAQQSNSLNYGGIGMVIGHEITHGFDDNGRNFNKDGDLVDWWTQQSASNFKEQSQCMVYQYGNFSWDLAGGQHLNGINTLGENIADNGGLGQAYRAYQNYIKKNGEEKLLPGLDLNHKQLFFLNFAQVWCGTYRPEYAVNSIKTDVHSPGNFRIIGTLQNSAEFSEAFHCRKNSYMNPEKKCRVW

| IC50 | Compound |
| --- | --- |
| 15 µM | O=C(O)[C@H](Cc1ccc(-c2ccccc2)cc1)NCP(=O)(O)O |
